Data on three molecules can be found in ChEMBL document CHEMBL6120974, “Hydrazide-Based Class I Selective HDAC Inhibitors Completely Reverse Chemoresistance Synergistically in Platinum-Resistant Solid Cancer Cells” (J Med Chem, 2024).

The nature of data set [1]: Lipophilicity, logD of the compound in 1-octanol/PBS buffer at pH 7.4 by HPLC/UV analysis. Format: physicochemical. As to conditions: octanol/water.
For data set [2], the target named is Histone deacetylase 3 (Homo sapiens, UniProt O15379). In words: Inhibition of HDAC3 (unknown origin).
Sequence of Histone deacetylase 3 (O15379 whole entry): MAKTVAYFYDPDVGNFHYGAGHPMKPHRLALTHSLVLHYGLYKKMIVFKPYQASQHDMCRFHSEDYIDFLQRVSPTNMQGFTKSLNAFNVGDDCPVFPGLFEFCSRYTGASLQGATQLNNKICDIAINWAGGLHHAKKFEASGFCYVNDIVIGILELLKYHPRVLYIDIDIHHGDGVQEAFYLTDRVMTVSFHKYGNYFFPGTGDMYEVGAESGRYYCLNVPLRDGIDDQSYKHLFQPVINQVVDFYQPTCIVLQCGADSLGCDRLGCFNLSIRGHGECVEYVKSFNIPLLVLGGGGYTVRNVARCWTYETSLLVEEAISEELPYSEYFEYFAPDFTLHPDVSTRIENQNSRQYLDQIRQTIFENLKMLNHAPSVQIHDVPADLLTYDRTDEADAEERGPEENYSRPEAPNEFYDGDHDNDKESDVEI
In data set [3] the test system is A2780. In words: Induction of apoptosis in human A2780 cells assessed as caspase-3/7 activation at 2 uM incubated for 48 hrs by capase3/7 green dye based analysis relative to control. Type of data set: functional.
Data set [4] relates to A2780cisR. In words: Induction of apoptosis in cisplatin resistant human A2780 cisR cells assessed as caspase-3/7 activation at 2 uM incubated for 48 hrs by capase3/7 green dye based analysis relative to control. Type of data set: functional.
For data set [5], the system named is CAL-27. The data set can be described thus: Induction of apoptosis in human CAL-27 cells assessed as caspase-3/7 activation at 0.5 uM incubated for 48 hrs by capase3/7 green dye based analysis relative to control. Format: functional.
Data set [6] can be described thus: Induction of apoptosis in cisplatin resistant human Cal27CisR cells assessed as caspase-3/7 activation at 0.5 uM incubated for 48 hrs by capase3/7 green dye based analysis relative to control. Format: functional.
Data set [7] can be described thus: Cytotoxicity against human HEK293 cells assessed as reduction in cell viability incubated for 72 hrs by MTT assay. Type of data set: toxicity, cell-based. On the technique in general: Tetrazolium assays rely on reduction of a dye to a coloured formazan, in cell work by metabolically active cells.
Data set [8] concerns A2780cisR. In words: cells. To be noted: Homo sapiens, 72 h.
Data set [9] deals with CAL-27. In words: cells. As to conditions: Homo sapiens, CAL-27, 72 h.
Description: Cytotoxicity against human CAL-27 cells assessed as reduction in cell viability incubated for 72 hrs by MTT assay
Data set [10] can be described thus: cells. As to conditions: Homo sapiens, Cal27CisR, 72 h.
Description: Cytotoxicity against cisplatin resistant human Cal27CisR cells assessed as reduction in cell viability incubated for 72 hrs by MTT assay
For data set [11], the system named is HL-60. In words: cells. As to conditions: Homo sapiens, HL-60, 72 h.
Description: Cytotoxicity against human HL-60 cells harboring p53 null assessed as cell viability incubated for 72 hrs by MTT assay
Data set [12] has as its system MV4-11. In words: cells. To be noted: Homo sapiens, MV4-11, 72 h.
Description: Cytotoxicity against human MV4-11 cells harboring wild type p53 assessed as cell viability incubated for 72 hrs by MTT assay
In data set [13] the target is Histone deacetylase 1 (Homo sapiens, UniProt Q13547). The data set can be described thus: Inhibition of FLAG tagged full length human HDAC1 expressed in HEK293T cells using acyl-H3K9 peptide as substrate preincubated with compound for 20 mins followed by substrate addition and measured after 120 mins by HPLC analysis.
Sequence of Histone deacetylase 1 (Q13547 whole entry): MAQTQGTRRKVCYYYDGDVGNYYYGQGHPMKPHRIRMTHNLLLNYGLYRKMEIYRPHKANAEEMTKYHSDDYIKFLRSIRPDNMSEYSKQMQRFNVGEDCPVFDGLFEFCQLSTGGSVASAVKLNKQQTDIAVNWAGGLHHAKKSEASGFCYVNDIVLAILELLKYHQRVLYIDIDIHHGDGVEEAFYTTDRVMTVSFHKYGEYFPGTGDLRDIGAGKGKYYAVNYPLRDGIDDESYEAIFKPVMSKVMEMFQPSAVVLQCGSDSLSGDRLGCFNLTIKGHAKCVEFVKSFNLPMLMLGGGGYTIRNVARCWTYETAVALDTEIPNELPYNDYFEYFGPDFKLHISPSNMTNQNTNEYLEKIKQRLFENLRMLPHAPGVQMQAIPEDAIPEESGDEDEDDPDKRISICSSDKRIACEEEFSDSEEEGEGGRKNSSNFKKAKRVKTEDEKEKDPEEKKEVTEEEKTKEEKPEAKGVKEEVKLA
The target in data set [14] is Histone deacetylase 4 (Homo sapiens, UniProt P56524). In words: Inhibition of FLAG tagged full length human HDAC4 expressed in HEK293T cells using acyl-H3K9 peptide as substrate preincubated with compound for 20 mins followed by substrate addition and measured after 120 mins by HPLC analysis.
Sequence of Histone deacetylase 4 (P56524 whole entry): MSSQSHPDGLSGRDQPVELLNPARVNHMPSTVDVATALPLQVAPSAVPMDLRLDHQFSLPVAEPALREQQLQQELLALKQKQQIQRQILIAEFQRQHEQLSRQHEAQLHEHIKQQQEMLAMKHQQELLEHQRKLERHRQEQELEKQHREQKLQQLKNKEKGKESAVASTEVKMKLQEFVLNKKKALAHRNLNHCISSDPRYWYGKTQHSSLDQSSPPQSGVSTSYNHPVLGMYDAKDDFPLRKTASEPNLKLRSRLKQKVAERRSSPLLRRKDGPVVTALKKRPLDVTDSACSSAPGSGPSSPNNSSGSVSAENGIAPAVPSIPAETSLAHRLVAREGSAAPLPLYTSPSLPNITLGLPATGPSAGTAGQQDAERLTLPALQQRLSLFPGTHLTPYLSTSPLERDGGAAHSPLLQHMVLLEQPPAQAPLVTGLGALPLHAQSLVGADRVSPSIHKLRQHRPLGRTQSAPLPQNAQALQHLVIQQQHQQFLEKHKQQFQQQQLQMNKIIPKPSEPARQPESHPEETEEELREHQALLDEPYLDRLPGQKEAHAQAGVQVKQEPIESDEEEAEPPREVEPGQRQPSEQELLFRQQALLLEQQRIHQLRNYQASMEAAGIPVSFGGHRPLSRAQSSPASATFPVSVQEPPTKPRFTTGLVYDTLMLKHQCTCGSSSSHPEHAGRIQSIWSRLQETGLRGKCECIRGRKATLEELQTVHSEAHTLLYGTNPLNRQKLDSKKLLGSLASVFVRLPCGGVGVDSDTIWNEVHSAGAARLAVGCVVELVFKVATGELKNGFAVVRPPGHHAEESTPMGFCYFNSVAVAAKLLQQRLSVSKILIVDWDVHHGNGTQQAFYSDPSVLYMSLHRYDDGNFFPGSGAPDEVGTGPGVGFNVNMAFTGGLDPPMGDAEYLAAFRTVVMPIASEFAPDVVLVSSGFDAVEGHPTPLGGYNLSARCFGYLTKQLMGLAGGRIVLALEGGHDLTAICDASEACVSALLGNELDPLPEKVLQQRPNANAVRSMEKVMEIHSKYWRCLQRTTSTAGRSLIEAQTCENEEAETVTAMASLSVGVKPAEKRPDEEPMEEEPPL
Data set [15] concerns the target T1, Histone deacetylase 8 (Homo sapiens, UniProt Q9BY41).
T1 sequence (Q9BY41 whole entry): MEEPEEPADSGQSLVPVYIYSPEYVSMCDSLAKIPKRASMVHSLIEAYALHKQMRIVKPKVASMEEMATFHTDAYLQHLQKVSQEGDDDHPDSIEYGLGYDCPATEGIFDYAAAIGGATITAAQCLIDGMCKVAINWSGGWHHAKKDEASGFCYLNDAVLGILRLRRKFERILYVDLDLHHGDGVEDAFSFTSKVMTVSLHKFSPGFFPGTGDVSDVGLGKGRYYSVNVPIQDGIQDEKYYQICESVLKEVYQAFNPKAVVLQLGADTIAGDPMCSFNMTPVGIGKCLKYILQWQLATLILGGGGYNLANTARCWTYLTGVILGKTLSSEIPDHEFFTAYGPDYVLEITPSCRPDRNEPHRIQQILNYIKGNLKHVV
In words: Inhibition of FLAG tagged full length human HDAC8 expressed in HEK293T cells using acyl-H3K9 peptide as substrate preincubated with compound for 20 mins followed by substrate addition and measured after 120 mins by HPLC analysis. Type of data set: cell-based.

SMILES strings stand for the structures.

One may read the logD as lipophilicity at a set pH, counting ionised and neutral species. A lower logD goes with lower lipophilicity. Broadly, the IC50 is the concentration that gives 50% inhibition. For the molecule `CN(C)c1ccc(C(=O)N(CC(=O)NCc2ccccc2)Cc2ccc(C(=O)Nc3cc(-c4ccncc4)ccc3N)cc2)cc1`, in data set [1], the logD amounted to 3.16. This molecule registered a concentration for half-maximal inhibition (IC50) in data set [2] of more than 6.67 µM.

As for `Nc1ccccc1NC(=O)c1ccc(CNC(=O)OCc2cccnc2)cc1` [ENTINOSTAT], the Activity is 10% in data set [3], 15% in [4], less than 5% in data set [5] and less than 5% in data set [6]. For the same molecule, in data set [7], the IC50 at 72 h worked out at 7.11 µM. In addition, the IC50 in data set [8] was 5.57 µM; in data set [9], 2.96 µM; in [10] it was 3.63 µM; in [11] it was 0.939 µM; in data set [12], 0.41 µM.

Consider `CCCCCCCCCCCCCCCCNNC(=O)c1cccs1`, for which the IC50 in [13], in data set [14] and in data set [15] was more than 100 µM throughout.
